Results: patent US4207311A, “Peptides having analgesic and thermoregulative properties” (The Salk Institute for Biological Studies, priority 1977, dated 1980)
Square brackets hold non-standard residues; d marks the D form. Peptide text beside a SMILES is read from it. pGlu = O=C1CC[C@@H](C(=O)O)N1

Test system: cold exposed rat
Assay: hypothermia in cold exposed rats after intracisternal injection (rectal/core temperature)
Assay type: in vivo
Description: Male Sprague-Dawley-CV rats weighing 180-200 grams were housed in temperature and humidity controlled quarters. The rats were fed a standard rat food ration and tap water ad libitum. After being anesthetized with ether, peptides were injected into the cisterna magna of each rat. Ten microliters of a peptide solution containing 1-1000 nanograms of the peptide were injected. Immediately following the injections, the animals were transferred to a cold room maintained at 4° C. Rectal temperatures were recorded with a thermo probe at 30 minute intervals following injection. All experiments were carried out in a randomized block design. Following analyses of variance, differences between the effect of the various peptides were determined. The peptides were dissolved in a buffer composed of 126 mM, NaCl, 6 mM KCl, 1 mM NaH2 PO4, 0.88 mM MgSo4, 1.45 mM CaCl2, and 25 mM HEPES pH 7.2.
Other peptides isolated from anuran skin, i.e., litorin, ranatensin and alytesin, are approximately 1%, 10% and 100% respectively as potent as the peptide described above to lower body temperature of the cold exposed rat.

Row | Structure (SMILES) | potency relative to the peptide of Example I to lower body temperature (cold exposed rat) | potency relative to Neurotensin to produce hypothermia (cold exposed rat (4° C.), graded doses, core temperature 60 minutes following administration)
1 | CSCC[C@H](NC(=O)[C@H](Cc1ccccc1)NC(=O)[C@H](Cc1c[nH]cn1)NC(=O)CNC(=O)[C@@H](NC(=O)[C@H](C)NC(=O)[C@H](Cc1c[nH]c2ccccc12)NC(=O)[C@H](CCC(N)=O)NC(=O)[C@@H]1CCCN1C(=O)[C@@H](NC(=O)[C@@H]1CCC(=O)N1)C(C)C)C(C)C)C(N)=O [ranatensin] ([pGlu]VPQWAVGHFM-NH2) | ~10% | –
2 | CSCC[C@H](NC(=O)[C@H](CC(C)C)NC(=O)[C@H](Cc1cnc[nH]1)NC(=O)CNC(=O)[C@@H](NC(=O)[C@H](C)NC(=O)[C@H](Cc1c[nH]c2ccccc12)NC(=O)[C@H](CCC(N)=O)NC(=O)[C@H](CC(N)=O)NC(=O)CNC(=O)[C@H](CC(C)C)NC(=O)[C@H](CCCN=C(N)N)NC(=O)[C@H](CCC(N)=O)NC(=O)[C@@H]1CCC(=O)N1)C(C)C)C(N)=O [the peptide of the invention] | – | at least 10^4 times
